Like-named read-outs stand apart in the source and are kept apart here.
How the values were obtained:
Assay type in all cases: biochemical
[1] = target: CDK2/CCNE1 (Homo sapiens, UniProt P24941); assay: CDK2 homogeneous time-resolved fluorescence (HTRF) kinase assay; conditions: CDK2/CCNE
Method in brief: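 CDK2/CCNE1 (3 nM) preincubated 20 min at 23 °C with compound, then reacted 60 min at 23 °C with 1 mM ATP and 50 nM ULight-4E-BP1 (Thr37/46) peptide. Stopped with EDTA, phospho-peptide detected by Eu-anti-phospho antibody (665 nm or 665/615 ratio). IC50 from 11-point half-log titrations typically starting at 10 μM.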

[2] = target: CDK6/CCND1 (Homo sapiens, UniProt Q00534); assay: CDK6 homogeneous time-resolved fluorescence (HTRF) kinase assay; conditions: CDK6/CCND; x = IC50 >250 nM; read-out: CDK6/CCND IC50 (>250 nM column)
Method in brief: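 Enzyme pre-incubated 20 min at 23 °C with compound, then reacted 60 min at 23 °C with 1 mM ATP and 50 nM ULight-4E-BP1 (Thr37/46) peptide; 1 nM enzyme, 1% DMSO. EDTA-stopped, Eu-anti-phospho antibody TR-FRET read (665 nm or 665/615 ratio); 11-point half-log titration from 10 μM gave IC50.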

[3] = target: CDK1/CCNB1 (Homo sapiens, UniProt P06493); assay: CDK1 homogeneous time-resolved fluorescence (HTRF) kinase assay; conditions: CDK1/CCNB
Method in brief: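 Compounds, titrated 11 points in half-log steps typically from 10 μM, were incubated with enzyme for 20 min before ATP (1 mM) and ULight-labelled eIF4E-binding protein 1 peptide (50 nM) started a 60-min reaction at 23 °C. Phosphopeptide was detected by europium-antibody TR-FRET and IC50 values were derived.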

[4] = target: CDK4/CCND3 (Homo sapiens, UniProt P11802); assay: CDK4 homogeneous time-resolved fluorescence (HTRF) kinase assay; conditions: CDK4/CCND; x = IC50 >250 nM; read-out: CDK4/CCND IC50 (>250 nM column)
Method in brief: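 Steps: compound plus 1.5 nM CDK4/CCND3, 20 min, 23 °C; add 1 mM ATP and 50 nM ULight-4E-BP1 (Thr37/46) peptide, 60 min; stop with 10 mM EDTA; add 2 nM Eu anti-phospho antibody, 60 min; read 665 nm. IC50 from 11-point half-log series starting 10 μM.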

[5] = x = IC50 <25 nM, read-out: CDK2/CCNE IC50 (<25 nM)
[6] = x = IC50 >250 nM, read-out: CDK1/CCNB IC50 (>250 nM column)

Sequence of CDK6/CCND1 (Q00534 whole entry): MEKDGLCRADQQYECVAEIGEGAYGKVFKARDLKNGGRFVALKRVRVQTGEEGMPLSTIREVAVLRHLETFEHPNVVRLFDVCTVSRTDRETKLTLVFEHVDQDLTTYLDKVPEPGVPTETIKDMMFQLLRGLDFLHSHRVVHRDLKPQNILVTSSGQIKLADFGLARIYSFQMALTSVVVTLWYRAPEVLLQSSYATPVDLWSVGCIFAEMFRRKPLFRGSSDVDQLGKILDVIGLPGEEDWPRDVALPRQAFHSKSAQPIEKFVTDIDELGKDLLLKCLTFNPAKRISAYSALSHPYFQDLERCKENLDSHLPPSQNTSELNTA
Sequence of CDK6/CCND1 (P24385 whole entry partner): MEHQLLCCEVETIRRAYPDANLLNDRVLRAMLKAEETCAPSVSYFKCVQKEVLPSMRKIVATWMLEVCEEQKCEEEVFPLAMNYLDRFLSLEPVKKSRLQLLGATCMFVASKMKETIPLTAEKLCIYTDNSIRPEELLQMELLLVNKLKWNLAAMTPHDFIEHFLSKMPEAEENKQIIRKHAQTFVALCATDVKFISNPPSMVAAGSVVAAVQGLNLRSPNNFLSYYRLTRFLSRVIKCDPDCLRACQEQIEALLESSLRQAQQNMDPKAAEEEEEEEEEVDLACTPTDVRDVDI
Sequence of CDK4/CCND3 (P11802 whole entry): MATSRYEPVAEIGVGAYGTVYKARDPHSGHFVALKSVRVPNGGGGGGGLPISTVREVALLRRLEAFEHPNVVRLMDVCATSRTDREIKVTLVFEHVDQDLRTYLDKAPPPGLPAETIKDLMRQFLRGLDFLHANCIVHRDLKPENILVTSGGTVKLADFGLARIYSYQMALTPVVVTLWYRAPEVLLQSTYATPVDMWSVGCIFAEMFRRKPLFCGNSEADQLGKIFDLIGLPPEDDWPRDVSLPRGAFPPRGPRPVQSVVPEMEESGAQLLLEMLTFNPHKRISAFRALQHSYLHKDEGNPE
Sequence of CDK4/CCND3 (P30281 whole entry partner): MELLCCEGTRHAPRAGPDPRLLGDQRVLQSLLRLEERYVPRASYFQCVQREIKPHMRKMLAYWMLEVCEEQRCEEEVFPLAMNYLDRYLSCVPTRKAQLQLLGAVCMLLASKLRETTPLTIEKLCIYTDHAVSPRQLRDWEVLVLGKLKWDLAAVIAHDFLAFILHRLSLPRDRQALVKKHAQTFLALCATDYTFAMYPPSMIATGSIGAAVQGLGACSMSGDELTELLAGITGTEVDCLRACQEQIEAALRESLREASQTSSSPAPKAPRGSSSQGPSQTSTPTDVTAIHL
Sequence of CDK1/CCNB1 (P06493 whole entry): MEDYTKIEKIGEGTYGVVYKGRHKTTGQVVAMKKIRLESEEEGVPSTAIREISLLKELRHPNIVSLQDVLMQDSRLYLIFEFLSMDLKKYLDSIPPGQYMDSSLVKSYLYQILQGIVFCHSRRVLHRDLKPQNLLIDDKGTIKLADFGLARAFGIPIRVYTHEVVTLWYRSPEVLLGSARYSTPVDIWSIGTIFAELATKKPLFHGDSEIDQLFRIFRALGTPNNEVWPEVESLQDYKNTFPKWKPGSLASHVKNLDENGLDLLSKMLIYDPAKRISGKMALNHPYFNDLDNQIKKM
Sequence of CDK1/CCNB1 (P14635 whole entry partner): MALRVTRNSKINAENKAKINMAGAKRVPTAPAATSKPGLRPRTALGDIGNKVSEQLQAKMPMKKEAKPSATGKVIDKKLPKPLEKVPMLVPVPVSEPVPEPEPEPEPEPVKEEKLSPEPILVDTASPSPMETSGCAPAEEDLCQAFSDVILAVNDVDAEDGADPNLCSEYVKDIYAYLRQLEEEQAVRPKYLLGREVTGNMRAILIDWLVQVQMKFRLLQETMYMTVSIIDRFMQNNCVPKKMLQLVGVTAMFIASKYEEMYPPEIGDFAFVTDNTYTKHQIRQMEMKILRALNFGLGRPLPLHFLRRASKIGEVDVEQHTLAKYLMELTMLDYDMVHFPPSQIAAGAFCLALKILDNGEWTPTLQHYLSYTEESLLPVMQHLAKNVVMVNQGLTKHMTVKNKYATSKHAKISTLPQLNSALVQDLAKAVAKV

Row | IC50 [1, 5] [nM] | IC50 [2] [nM] | IC50 [3, 6] [nM] | IC50 [4] [nM] | IC50 ([1]; x = IC50 >250 nM, read-out: CDK2/CCNE IC50 (>250 nM column)) [nM] | IC50 ([3]; x = IC50 25-250 nM, read-out: CDK1/CCNB IC50 (25-250 nM)) [nM] | Structure (SMILES)
1 | < 25 | > 250 | > 250 | > 250 | – | – | Cc1cc(S(C)(=O)=O)ccc1Nc1cc2c(C#Cc3ccc4c(c3)NC(=O)C43CC3)nccc2cn1 [Ex 351, 6'-((7-((2-methyl-4-(methylsulfonyl)phenyl)amino)-2,6-naphthyridin-1-yl)ethynyl)spiro[cyclopropane-1,3'-indolin]-2'-one]
2 | – | > 250 | > 250 | > 250 | > 250 | – | CC1(C)C(=O)Nc2cc(C#Cc3nccc4cnc(Nc5ccc(S(C)(=O)=O)cc5C(F)(F)F)cc34)ccc21 [Ex 352, 3,3-dimethyl-6-((7-((4-(methylsulfonyl)-2-(trifluoromethyl)phenyl)amino)-2,6-naphthyridin-1-yl)ethynyl)indolin-2-one]
3 | < 25 | > 250 | – | > 250 | – | 25 to 250 | CCS(=O)(=O)c1ccc(Nc2cc3c(C#Cc4ccc5c(c4)NC(=O)C54CC4)nccc3cn2)c(C)c1 [Ex 356, 6'-((7-((4-(ethylsulfonyl)-2-methylphenyl)amino)-2,6-naphthyridin-1-yl)ethynyl)spiro[cyclopropane-1,3'-indolin]-2'-one]
4 | < 25 | > 250 | > 250 | > 250 | – | – | CCS(=O)(=O)c1ccc(Nc2cc3c(C#Cc4ccc5c(c4)NC(=O)C54CC4)nccc3cn2)c(OC)c1 [Ex 357, 6'-((7-((4-(ethylsulfonyl)-2-methoxyphenyl)amino)-2,6-naphthyridin-1-yl)ethynyl)spiro[cyclopropane-1,3'-indolin]-2'-one]
5 | < 25 | > 250 | > 250 | > 250 | – | – | COc1cc(S(C)(=O)=O)ccc1Nc1cc2c(C#Cc3ccc4c(c3)NC(=O)C43CCC3)nccc2cn1 [Ex 361, 6'-((7-((2-methoxy-4-(methylsulfonyl)phenyl)amino)-2,6-naphthyridin-1-yl)ethynyl)spiro[cyclobutane-1,3'-indolin]-2'-one]
6 | < 25 | > 250 | > 250 | > 250 | – | – | CCC1(CC)C(=O)Nc2cc(C#Cc3nccc4cnc(Nc5ccc(S(=O)(=O)C(C)C)cc5C)cc34)ccc21 [Ex 369, 3,3-diethyl-6-((7-((4-(isopropylsulfonyl)-2-methylphenyl)amino)-2,6-naphthyridin-1-yl)ethynyl)indolin-2-one]
7 | < 25 | > 250 | > 250 | > 250 | – | – | CCC1(CC)C(=O)Nc2cc(C#Cc3nccc4cnc(Nc5ccc(S(=O)(=O)CC)cc5C)cc34)ccc21 [Ex 370, 3,3-diethyl-6-((7-((4-(ethylsulfonyl)-2-methylphenyl)amino)-2,6-naphthyridin-1-yl)ethynyl)indolin-2-one]
8 | < 25 | > 250 | > 250 | > 250 | – | – | CCC1(CC)C(=O)Nc2cc(C#Cc3nccc4cnc(Nc5ccc(S(=O)(=O)CC)cc5OC)cc34)ccc21 [Ex 371, 3,3-diethyl-6-((7-((4-(ethylsulfonyl)-2-methoxyphenyl)amino)-2,6-naphthyridin-1-yl)ethynyl)indolin-2-one]
9 | < 25 | > 250 | > 250 | > 250 | – | – | COc1cc(S(C)(=O)=O)ccc1Nc1cc2c(C#Cc3ccc4c(c3)NC(=O)C43CC3)nccc2cn1 [Ex 375, 6'-((7-((2-methoxy-4-(methylsulfonyl)phenyl)amino)-2,6-naphthyridin-1-yl)ethynyl)spiro[cyclopropane-1,3'-indolin]-2'-one]
10 | < 25 | > 250 | > 250 | > 250 | – | – | CC1(C)C(=O)Nc2cc(C#Cc3nccc4cnc(Nc5ccc(S(C)(=O)=O)c(O)c5)cc34)ccc21 [Ex 379, 6-((7-((3-hydroxy-4-(methylsulfonyl)phenyl)amino)-2,6-naphthyridin-1-yl)ethynyl)-3,3-dimethylindolin-2-one]

— patent US20260325533A1, “CDK INHIBITOR COMPOUNDS” (ALEKSIA THERAPEUTICS, INC., priority 2023, published 2026)
